Measurements reported in patent publication US10766869B2, “Triazoles for the treatment of demyelinating dieases” (Vertex Pharmaceuticals Incorporated, priority 2015, dated 2020).

System: primary rat mixed cortical cells
Assay: In vitro myelination assay (MBP positive myelin strands, fold myelin pixels above background)
Format: cell-based
Details: Rattus norvegicus, relative to baseline of no added compound, read-out: Fold myelin pixels above background; for fold induction at 1 µM: 1.0 μM compound; for fold induction at 10 µM: 10.0 μM compound
Outline: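 Fourteen-day treatment of primary P1 rat mixed cortical cultures, re-dosed at days 6 and 10, at 1.0 μM and 10.0 μM. MBP immunofluorescence was imaged at 10× and myelin strands quantified by software, normalised to untreated wells as fold above background.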

Compound	fold induction at 1 µM	fold induction at 10 µM
Cc1cc(Nc2ncn(-c3cc(F)cc(F)c3)n2)cc(N2CCN3C(=O)CCC3C2)c1 (stereo not shown) [Compound 561, 2-[3-[[1-(3,5-difluorophenyl)-1,2,4-triazol-3-yl]amino]-5-methyl-phenyl]-1,3,4,7,8,8a-hexahydropyrrolo[1,2-a]pyrazin-6-one]	100 to 1000	10 to 100
Cc1cc(Nc2ncn(-c3cc(F)cc(F)c3)n2)nc(N2CCN(C3CCOC3)CC2)c1 (stereo not shown) [Compound 562, N-[1-(3,5-difluorophenyl)-1,2,4-triazol-3-yl]-4-methyl-6-(4-tetrahydrofuran-3-ylpiperazin-1-yl)pyridin-2-amine]	1 to 10	1 to 10
Cc1cc(Nc2ncn(-c3cc(F)cc(F)c3)n2)nc(N2CC(C3COC3)C2)c1 [Compound 563, N-[1-(3,5-difluorophenyl)-1,2,4-triazol-3-yl]-4-methyl-6-[3-(oxetan-3-yl)azetidin-1-yl]pyridin-2-amine]	≤ 1	1 to 10
Fc1cc(F)cc(-n2cnc(Nc3cc(C(F)(F)F)cc(N4CCN(C5CCOC5)CC4)n3)n2)c1 (stereo not shown) [Compound 564, N-[1-(3,5-difluorophenyl)-1,2,4-triazol-3-yl]-6-(4-tetrahydrofuran-3-ylpiperazin-1-yl)-4-(trifluoromethyl)pyridin-2-amine]	≤ 1	≤ 1
CCOC(=O)C1CCN(c2cc(C)cc(Nc3ncn(-c4cc(F)cc(F)c4)n3)n2)CC1 [Compound 565, ethyl 1-[6-[[1-(3,5-difluorophenyl)-1,2,4-triazol-3-yl]amino]-4-methyl-2-pyridyl]piperidine-4-carboxylate]	≤ 1	≤ 1
Cc1cc(Nc2ncn(-c3cc(F)cc(F)c3)n2)cc(N2CCN3CCOCC3C2)c1 (stereo not shown) [Compound 566, N-[3-(3,4,6,7,9,9a-hexahydro-1H-pyrazino[2,1-c][1,4]oxazin-8-yl)-5-methyl-phenyl]-1-(3,5-difluorophenyl)-1,2,4-triazol-3-amine]	100 to 1000	10 to 100
Fc1cc(F)cc(-n2cnc(Nc3cc(N4CCN(C5COC5)CC4)cc(C(F)(F)F)n3)n2)c1 [Compound 567, N-[1-(3,5-difluorophenyl)-1,2,4-triazol-3-yl]-4-[4-(oxetan-3-yl)piperazin-1-yl]-6-(trifluoromethyl)pyridin-2-amine]	≤ 1	≤ 1
Cc1cc(Nc2ncn(-c3cc(F)cc(F)c3)n2)nc(N2CCCC(F)C2)c1 (stereo not shown) [Compound 568, N-[1-(3,5-difluorophenyl)-1,2,4-triazol-3-yl]-6-(3-fluoro-1-piperidyl)-4-methyl-pyridin-2-amine]	1 to 10	≤ 1
Cc1cc(Nc2ncn(-c3cc(F)cc(F)c3)n2)nc(N2CCC(C)(O)CC2)c1 [Compound 569, 1-[6-[[1-(3,5-difluorophenyl)-1,2,4-triazol-3-yl]amino]-4-methyl-2-pyridyl]-4-methyl-piperidin-4-ol]	1 to 10	10 to 100
Cc1cc(Nc2ncn(-c3cc(F)cc(F)c3)n2)nc(N2CC3(CCOC3)C2)c1 [Compound 570, N-[1-(3,5-difluorophenyl)-1,2,4-triazol-3-yl]-4-methyl-6-(7-oxa-2-azaspiro[3.4]octan-2-yl)pyridin-2-amine]	≤ 1	1 to 10
Cc1cc(Nc2ncn(-c3cc(F)cc(F)c3)n2)nc(N2CC3(CCO3)C2)c1 [Compound 571, N-[1-(3,5-difluorophenyl)-1,2,4-triazol-3-yl]-4-methyl-6-(3-oxa-6-azaspiro[3.3]heptan-6-yl)pyridin-2-amine]	≤ 1	1 to 10
Cc1cc(Nc2ncn(-c3cc(F)cc(F)c3)n2)nc(N2CC(C(C)(C)O)C2)c1 [Compound 572, 2-[1-[6-[[1-(3,5-difluorophenyl)-1,2,4-triazol-3-yl]amino]-4-methyl-2-pyridyl]azetidin-3-yl]propan-2-ol]	≤ 1	1 to 10
CC(C)(C)N1CCN(c2cc(Nc3ncn(-c4cc(F)cc(F)c4)n3)cc(N3CCN(C(C)(C)C)CC3)c2)CC1 [Compound 573, N-[3,5-bis(4-tert-butylpiperazin-1-yl)phenyl]-1-(3,5-difluorophenyl)-1,2,4-triazol-3-amine]	1 to 10	1 to 10
Fc1cc(F)cc(-n2cnc(Nc3cc(N4CCN(C5COC5)CC4)cc(N4CCN(C5COC5)CC4)c3)n2)c1 [Compound 574, N-[3,5-bis[4-(oxetan-3-yl)piperazin-1-yl]phenyl]-1-(3,5-difluorophenyl)-1,2,4-triazol-3-amine]	100 to 1000	10 to 100
Cc1cc(Nc2ncn(-c3cccc(C(F)(F)F)c3)n2)cc(OCCN2CCOCC2)c1 [Compound 575, N-[3-methyl-5-(2-morpholinoethoxy)phenyl]-1-[3-(trifluoromethyl)phenyl]-1,2,4-triazol-3-amine]	10 to 100	≤ 1
FC(F)c1cc(Nc2ncn(-c3cnccn3)n2)nc(N2CCN(C3COC3)CC2)c1 [Compound 576, 4-(difluoromethyl)-6-[4-(oxetan-3-yl)piperazin-1-yl]-N-(1-pyrazin-2-yl-1,2,4-triazol-3-yl)pyridin-2-amine]	10 to 100	10 to 100
CCc1cc(Nc2ncn(-c3ccc(F)c(F)c3)n2)cc(N2CCN(C3(C)COC3)CC2)c1 [Compound 577, 1-(3,4-difluorophenyl)-N-[3-ethyl-5-[4-(3-methyloxetan-3-yl)piperazin-1-yl]phenyl]-1,2,4-triazol-3-amine]	10 to 100	10 to 100
Cc1cc(Nc2ncn(-c3cccc(C(F)(F)F)c3)n2)nc(N2CCN(C3COC3)CC2)c1 [Compound 578, 4-methyl-6-[4-(oxetan-3-yl)piperazin-1-yl]-N-[1-[3-(trifluoromethyl)phenyl]-1,2,4-triazol-3-yl]pyridin-2-amine]	1 to 10	10 to 100
CC(F)(F)c1cc(Nc2ncn(-c3ccc(F)c(F)c3)n2)nc(N2CCN(C3COC3)CC2)c1 [Compound 579, 4-(1,1-difluoroethyl)-N-[1-(3,4-difluorophenyl)-1,2,4-triazol-3-yl]-6-[4-(oxetan-3-yl)piperazin-1-yl]pyridin-2-amine]	1 to 10	1 to 10
Cc1cc(Nc2ncn(-c3cc(F)cc(F)c3)n2)nc(N2CCN(C3(C)COC3)CC2)c1 [Compound 580, N-[1-(3,5-difluorophenyl)-1,2,4-triazol-3-yl]-4-methyl-6-[4-(3-methyloxetan-3-yl)piperazin-1-yl]pyridin-2-amine]	≤ 1	1 to 10
Cc1cc(Nc2ncn(-c3cc(F)cc(F)c3)n2)cc(C2CN(C3COC3)CCO2)c1 (stereo not shown) [Compound 581, 1-(3,5-difluorophenyl)-N-[3-methyl-5-[4-(oxetan-3-yl)morpholin-2-yl]phenyl]-1,2,4-triazol-3-amine]	10 to 100	≤ 1
Cc1cc(Nc2ncn(-c3cc(F)cc(F)c3)n2)cc(N2CCN(C(=O)N3CCOCC3)CC2)c1 [Compound 582, [4-[3-[[1-(3,5-difluorophenyl)-1,2,4-triazol-3-yl]amino]-5-methyl-phenyl]piperazin-1-yl]-morpholino-methanone]	1 to 10	10 to 100
Cc1cc(CN2CCN(C3COC3)CC2)cc(Nc2ncn(-c3cnccn3)n2)c1 [Compound 583, N-[3-methyl-5-[[4-(oxetan-3-yl)piperazin-1-yl]methyl]phenyl]-1-pyrazin-2-yl-1,2,4-triazol-3-amine]	10 to 100	10 to 100
COC[C@H](C)NC(=O)C1CN(c2cc(C)cc(Nc3ncn(-c4cc(F)cc(F)c4)n3)c2)C1 [Compound 584, 1-[3-[[1-(3,5-difluorophenyl)-1,2,4-triazol-3-yl]amino]-5-methyl-phenyl]-N-[(1S)-2-methoxy-1-methyl-ethyl]azetidine-3-carboxamide]	10 to 100	1 to 10
Cc1cc(Nc2ncn(-c3cccnc3)n2)cc(N2CCN(C3(C)COC3)CC2)c1 [Compound 585, N-[3-methyl-5-[4-(3-methyloxetan-3-yl)piperazin-1-yl]phenyl]-1-(3-pyridyl)-1,2,4-triazol-3-amine]	10 to 100	1 to 10
Cc1cc(Nc2ncn(-c3cc(F)cc(F)c3)n2)cc(N2CC(N3CCOC4(CC4)C3)C2)c1 [Compound 586, 1-(3,5-difluorophenyl)-N-[3-methyl-5-[3-(4-oxa-7-azaspiro[2.5]octan-7-yl)azetidin-1-yl]phenyl]-1,2,4-triazol-3-amine]	10 to 100	10 to 100
Cc1cc(N2CCN(C3COC3)CC2)cc(Nc2ncn(-c3cc(F)cc(F)c3)n2)c1F [Compound 587, 1-(3,5-difluorophenyl)-N-[2-fluoro-3-methyl-5-[4-(oxetan-3-yl)piperazin-1-yl]phenyl]-1,2,4-triazol-3-amine]	1 to 10	10 to 100
Cc1cc(Nc2ncn(-c3ccccc3)n2)cc(Nc2ncc(C)s2)c1 [Compound 588, 5-methyl-N1-(5-methylthiazol-2-yl)-N3-(1-phenyl-1,2,4-triazol-3-yl)benzene-1,3-diamine]	10 to 100	≤ 1
Cc1cc(Nc2ncn(-c3cc(F)cc(F)c3)n2)cc(N2CCC(C(=O)N3CCOCC3)CC2)c1 [Compound 589, [1-[3-[[1-(3,5-difluorophenyl)-1,2,4-triazol-3-yl]amino]-5-methyl-phenyl]-4-piperidyl]-morpholino-methanone]	10 to 100	≤ 1
